The values below come from patent US9796700B2 (Celgene CAR LLC, priority 2013, dated 2017).

Each structure is given as a SMILES string. Bounds are passed on as bounds.

For test [1], the target named is Erk1 (Homo sapiens (Human), UniProt P27361). The test is described as follows: Protein Mass Modification Assay (intact protein MALDI). It is filed as binding. An outline of the steps: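 Percent covalent modification comes from the intact-protein MALDI centroid mass shift, treated versus control, divided by compound MW. Before analysis, human Erk1 was exposed to compound at 10-fold excess over protein for 60 min at room temperature.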

Test [2] addresses MEK1 activated ERK1 (Homo sapiens (Human), UniProt P27361). Put plainly: Omnia continuous-read kinase assay for potency against MEK1 activated ERK1. It is filed as biochemical. Conditions: MEK1 activated ERK1, WT, ATP at KM. The gist of the method:
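Apparent IC50 came from initial reaction slopes (RFU vs time) plotted against log inhibitor with a variable-slope fit. Reactions were started with ERK1 (4 nM final) added to 50 μM ATP, roughly at its appKM, and 10 μM Sox-conjugated ST17 peptide in 20 mM Tris pH 7.5, 5 mM MgCl2. Fluorescence was monitored every 71 seconds.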

Chain of Erk1 (P27361 whole entry, looked up): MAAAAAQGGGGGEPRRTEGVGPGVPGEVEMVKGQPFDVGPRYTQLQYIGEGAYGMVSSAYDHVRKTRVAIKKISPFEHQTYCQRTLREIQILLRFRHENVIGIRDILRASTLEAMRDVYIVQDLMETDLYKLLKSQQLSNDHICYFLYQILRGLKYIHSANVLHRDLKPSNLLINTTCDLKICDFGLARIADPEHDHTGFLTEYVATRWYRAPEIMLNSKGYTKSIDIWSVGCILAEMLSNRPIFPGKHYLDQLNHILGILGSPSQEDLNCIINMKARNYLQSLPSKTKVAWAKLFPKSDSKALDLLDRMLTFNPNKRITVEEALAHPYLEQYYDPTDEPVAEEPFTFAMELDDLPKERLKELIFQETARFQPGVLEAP
Chain of MEK1 activated ERK1 (P27361 whole entry): as the sequence (P27361 whole entry, looked up) above

Consider `C=CC(=O)Nc1ccccc1Nc1nc(N[C@H]2CCCN(C=O)C2)ncc1C(F)(F)F` [Compound I-9, (S)—N-(2-((2-((1-formylpiperidin-3-yl)amino)-5-(trifluoromethyl)pyrimidin-4-yl)amino)phenyl)acrylamide], for which the “ERK1 Mass Mod (%)” value in test [1] is on record as “E (provided a mass modification of ≧70%)”. Further, the IC50 in test [2] was under 100 nM.
As to `C=CC(=O)Nc1ccccc1Nc1nc(N[C@H]2CCCN(C(=O)CCCC(=O)NCCCOCCOCCOCCCNC(=O)CCCC[C@@H]3SC[C@@H]4NC(=O)N[C@@H]43)C2)ncc1Cl` [Compound I-303, 5-((S)-3-((4-((2-acrylamidophenyl)amino)-5-chloropyrimidin-2-yl)amino)piperidin-1-yl)-5-oxo-N-(15-oxo-19-((3aS,4S,6aR)-2-oxohexahydro-1H-thieno[3,4-d]imidazol-4-yl)-4,7,10-trioxa-14-azanonadecyl)pentanamide], in test [1], the “ERK1 Mass Mod (%)” value was “E (provided a mass modification of ≧70%)”. Moreover, the IC50 in test [2] is over 1000 nM.
Take `C=CC(=O)Nc1ccccc1Nc1nc(NC2CCN(C=O)CC2)ncc1Cl` [Compound I-124, N-(2-((5-chloro-2-((1-formylpiperidin-4-yl)amino)pyrimidin-4-yl)amino)phenyl) acrylamide]: in test [1], the “ERK1 Mass Mod (%)” value was “E (provided a mass modification of ≧70%)”. In test [2], the IC50 was under 100 nM.
With `CC#CC(=O)N[C@@H]1CCCC[C@H]1Nc1nc(N[C@H]2CCCN(C(=O)CO)C2)ncc1C(F)(F)F` [Compound I-33, N-((1R,2R)-2-((2-(((S)-1-(2-Hydroxyacetyl)piperidin-3-yl)amino)-5-(trifluoromethyl)pyrimidin-4-yl)amino)cyclohexyl)but-2-ynamide], the “ERK1 Mass Mod (%)” value in test [1] was “F (provided a mass modification of 31-69%)”. In test [2], the IC50 was over 1000 nM.
Take `C=CC(=O)N[C@H]1CCCC[C@@H]1Nc1nc(Nc2cc(C(N)=O)ccc2C)ncc1Cl` [Compound I-201, 3-((4-(((1S,2S)-2-acrylamidocyclohexyl)amino)-5-chloropyrimidin-2-yl)amino)-4-methylbenzamide]: the “ERK1 Mass Mod (%)” value in test [1] is listed as “G (proived a mass modification ≦30%)”. The IC50 in test [2] was over 1000 nM.
`C=CC(=O)Nc1ccccc1Nc1ccnc(Nc2ccc(N3CCN(C(C)=O)CC3)cc2OC)n1` [Compound I-154, N-(2-((2-((4-(4-acetylpiperazin-1-yl)-2-methoxyphenyl)amino)pyrimidin-4-yl)amino)phenyl)acrylamide]: the “ERK1 Mass Mod (%)” value in test [1] is on record as “G (proived a mass modification ≦30%)”. Also, the IC50 in test [2] is over 1000 nM.
Turning to `NC(=O)c1ccccc1Nc1nc(N[C@H]2CCCN(C(=O)CO)C2)ncc1C(F)(F)F` [Compound I-307, (S)-2-((2-((1-(2-hydroxyacetyl)piperidin-3-yl)amino)-5-(trifluoromethyl)pyrimidin-4-yl)amino)benzamide], the “ERK1 Mass Mod (%)” value in test [1] is listed as “G (proived a mass modification ≦30%)”. The IC50 in test [2] is under 100 nM.
Turning to `C=CC(=O)Nc1cc(C)ccc1Nc1nc(Nc2cc(OC)cnc2Cl)ncc1C(F)(F)F` [Compound I-361, N-(2-((2-((2-chloro-5-methoxypyridin-3-yl)amino)-5-(trifluoromethyl)pyrimidin-4-yl)amino)-5-methylphenyl)acrylamide], the “ERK1 Mass Mod (%)” value in test [1] is recorded as “E (provided a mass modification of ≧70%)”. Besides, the IC50 in test [2] is under 100 nM.
Take `CCC(=O)Nc1ccccc1Nc1nc(N[C@H]2CCCN(C(C)=O)C2)ncc1C(F)(F)F` [Compound I-317, (S)—N-(2-((2-((1-acetylpiperidin-3-yl)amino)-5-(trifluoromethyl)pyrimidin-4-yl)amino)phenyl)propionamide]: in test [1], the “ERK1 Mass Mod (%)” value is “G (proived a mass modification ≦30%)”. The IC50 in test [2] is under 100 nM.
In the same order, the values of `C=C(C)C(=O)Nc1ccccc1Nc1nc(Nc2cc(C(N)=O)ccc2C)ncc1Cl` [Compound I-217, 3-((5-chloro-4-((2-methacrylamidophenyl)amino)pyrimidin-2-yl)amino)-4-methylbenzamide] are “G (proived a mass modification ≦30%)” and over 1000 nM.
As for `C=CC(=O)Nc1cc(OC)ccc1Nc1nc(Nc2ccc(N3CCN(C(=O)OC(C)(C)C)CC3)cc2OC)ncc1Cl` [Compound I-151, tert-butyl 4-(4-((4-((2-acrylamido-4-methoxyphenyl)amino)-5-chloropyrimidin-2-yl)amino)-3-methoxyphenyl)piperazine-1-carboxylate], in test [1], the “ERK1 Mass Mod (%)” value is recorded as “F (provided a mass modification of 31-69%)”. The IC50 in test [2] is over 1000 nM.
Consider `C=CC(=O)N[C@H]1CCCC1Nc1nc(N[C@H]2CCCN(C(C)=O)C2)ncc1C(F)(F)F` (stereo in doubt) [Compound I-24, N-((1S,2S)-2-((2-(((S)-1-Acetylpiperidin-3-yl)amino)-5-(trifluoromethyl)pyrimidin-4-yl)amino)cyclopentyl)acrylamide], for which the “ERK1 Mass Mod (%)” value in test [1] was “G (proived a mass modification ≦30%)”. Further, the IC50 in test [2] was over 1000 nM.
Take `C=CC(=O)Nc1ccccc1Nc1nc(N[C@@H]2CCN(C(=O)OC)C2)ncc1C(F)(F)F` [Compound I-61, (R)-Methyl 3-((4-((2-Acrylamidophenyl)amino)-5-(trifluoromethyl)pyrimidin-2-yl)amino)pyrrolidine-1-carboxylate]: the “ERK1 Mass Mod (%)” value in test [1] is recorded as “E (provided a mass modification of ≧70%)”. In test [2], the IC50 is over 1000 nM.
For the compound `C=CC(=O)Nc1cc(C)ccc1Nc1nc(Nc2cc(OC)nc(N3CCC(O)CC3)c2)ncc1C(F)(F)F` [Compound I-332, N-(2-((2-((2-(4-hydroxypiperidin-1-yl)-6-methoxypyridin-4-yl)amino)-5-(trifluoromethyl)pyrimidin-4-yl)amino)-5-methylphenyl)acrylamide], the “ERK1 Mass Mod (%)” value in test [1] is “E (provided a mass modification of ≧70%)”. In test [2], the IC50 is over 1000 nM.
With `C=CC(=O)N[C@H]1CCCC[C@H]1Nc1nc(Nc2cc(C(N)=O)ccc2C)ncc1Cl` [Compound I-200, 3-((4-(((1R,2S)-2-acrylamidocyclohexyl)amino)-5-chloropyrimidin-2-yl)amino)-4-methylbenzamide], in test [1], the “ERK1 Mass Mod (%)” value was “G (proived a mass modification ≦30%)”. Moreover, the IC50 in test [2] was over 1000 nM.
The corresponding values for `CCC(=O)Nc1ccccc1Nc1nc(N[C@H]2CCCN(C(=O)CO)C2)ncc1C(F)(F)F` [Compound I-318, (S)—N-(2-((2-((1-(2-hydroxyacetyl)piperidin-3-yl)amino)-5-(trifluoromethyl)pyrimidin-4-yl)amino)phenyl)propionamide] are “G (proived a mass modification ≦30%)” and under 100 nM.
Regarding `CC(C)=CC(=O)c1ccccc1Oc1nc(Nc2ccc(F)cc2C)ncc1Cl` [Compound I-222, 1-(2-((5-chloro-2-((4-fluoro-2-methylphenyl)amino)pyrimidin-4-yl)oxy)phenyl)-3-methylbut-2-en-1-one], the “ERK1 Mass Mod (%)” value in test [1] is “G (proived a mass modification ≦30%)”. Besides, the IC50 in test [2] was over 1000 nM.
The corresponding values for `C=CC(=O)Nc1ccccc1Nc1nc(N[C@H]2CCCN(C(N)=O)C2)ncc1C(F)(F)F` [Compound I-18, (S)-3-((4-((2-Acrylamidophenyl)amino)-5-(trifluoromethyl)pyrimidin-2-yl)amino)piperidine-1-carboxamide] are “E (provided a mass modification of ≧70%)” and under 100 nM.
Consider `C=CS(=O)(=O)N[C@@H]1CCCC[C@H]1Nc1nc(N[C@H]2CCCN(C(=O)CO)C2)ncc1C(F)(F)F` [Compound I-36, N-((1R,2R)-2-((2-(((S)-1-(2-Hydroxyacetyl)piperidin-3-yl)amino)-5-(trifluoromethyl)pyrimidin-4-yl)amino)cyclohexyl)ethenesulfonamide], for which the “ERK1 Mass Mod (%)” value in test [1] is reported as “E (provided a mass modification of ≧70%)”. Further, in test [2], the IC50 was under 100 nM.
In the same order, the values of `C=CC(=O)Nc1ccccc1Nc1nc(Nc2cc(OC)nc(N3CCCC3)c2)ncc1C(F)(F)F` [Compound I-281, N-(2-((2-((2-Methoxy-6-(pyrrolidin-1-yl)pyridin-4-yl)amino)-5-(trifluoromethyl)pyrimidin-4-yl)amino)phenyl)acrylamide] are “E (provided a mass modification of ≧70%)” and under 100 nM.
The corresponding values for `C=CC(=O)Nc1cc(C)ccc1Nc1nc(N[C@H]2CCCN(S(=O)(=O)C=C)C2)ncc1C(F)(F)F` [Compound I-277, (S)—N-(5-Methyl-2-((5-(trifluoromethyl)-2-((1-(vinylsulfonyl)piperidin-3-yl)amino)pyrimidin-4-yl)amino)phenyl)acrylamide] are “E (provided a mass modification of ≧70%)” and over 1000 nM.
With `C=C(F)C(=O)Nc1ccccc1Nc1nc(N[C@H]2CCCN(C(C)=O)C2)ncc1C(F)(F)F` [Compound I-55, (S)—N-(2-((2-((1-Acetylpiperidin-3-yl)amino)-5-(trifluoromethyl)pyrimidin-4-yl)amino)phenyl)-2-fluoroacrylamide], in test [1], the “ERK1 Mass Mod (%)” value is recorded as “E (provided a mass modification of ≧70%)”. The IC50 in test [2] is under 100 nM.
The corresponding values for `C=CC(=O)Nc1cc(Cl)ccc1Nc1nc(Nc2cc(OC)ncc2C)ncc1C(F)(F)F` [Compound I-289, N-(5-Chloro-2-((2-((2-methoxy-5-methylpyridin-4-yl)amino)-5-(trifluoromethyl)pyrimidin-4-yl)amino)phenyl)acrylamide] are “E (provided a mass modification of ≧70%)” and under 100 nM.
As to `C=CC(=O)Nc1cc(C)ccc1Nc1nc(NC2CCC(=O)CC2)ncc1C(F)(F)F` [Compound I-38, N-(5-Methyl-2-((2-((4-oxocyclohexyl)amino)-5-(trifluoromethyl)pyrimidin-4-yl)amino)phenyl)acrylamide], the “ERK1 Mass Mod (%)” value in test [1] was “E (provided a mass modification of ≧70%)”. In addition, the IC50 in test [2] was under 100 nM.
